Data on 8 compounds can be found in US20240279281A1, “Peptide Inhibitors of Interleukin-23 Receptor” (Janssen Pharmaceutica NV, priority 2023, published 2024).

Assay [1] addresses T1, IL-23R (Homo sapiens, UniProt Q5VWK5).
T1 construct: host or cells: HEK293
T1 sequence (Q5VWK5 24-629): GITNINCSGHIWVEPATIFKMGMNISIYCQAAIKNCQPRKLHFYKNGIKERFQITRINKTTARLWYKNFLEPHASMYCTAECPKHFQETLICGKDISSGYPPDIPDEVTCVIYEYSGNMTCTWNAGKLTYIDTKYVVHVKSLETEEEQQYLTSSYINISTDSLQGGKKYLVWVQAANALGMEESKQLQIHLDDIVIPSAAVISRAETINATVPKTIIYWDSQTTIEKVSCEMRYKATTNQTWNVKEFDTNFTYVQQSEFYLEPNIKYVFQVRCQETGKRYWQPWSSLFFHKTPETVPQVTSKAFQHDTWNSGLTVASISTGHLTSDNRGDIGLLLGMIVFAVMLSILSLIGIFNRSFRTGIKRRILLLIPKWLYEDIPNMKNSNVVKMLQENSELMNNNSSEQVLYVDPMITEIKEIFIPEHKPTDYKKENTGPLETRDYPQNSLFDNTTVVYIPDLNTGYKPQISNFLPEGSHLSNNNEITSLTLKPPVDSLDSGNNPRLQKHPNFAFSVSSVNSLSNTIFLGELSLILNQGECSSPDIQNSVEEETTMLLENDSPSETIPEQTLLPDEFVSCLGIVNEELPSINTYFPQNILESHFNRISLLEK
Kind of assay: IL23R Reporter Assay. The assay is classed as cell-based. The settings on record: HEK293 cells containing IL-23R, IL-12Rβ1 and STAT-inducible luciferase reporter; 10 ng/mL IL-23; 5 h; read-out: IC50. The procedure: Compounds were serially diluted in 100% (v/v) DMSO) and plated using an Echo acoustic dispenser (Labcyte) into 1536-well non-treated black assay plates (Corning #9146). […] After 5 h at 37° C., 5% CO2, 95% relative humidity, cells were placed at 20° C. and treated with BioGlo reagent (Promega) according to the Manufacturer's instructions. Luminescence was measured on a Pherastar FSX (BMG LabTech).

The target in assay [2] is T2, IL-23-stimulated phosphorylated STAT3 in peripheral blood mononuclear cells (PBMCs) (Homo sapiens, UniProt Q5VWK5).
T2 sequence (Q5VWK5 24-629): T1 sequence (Q5VWK5 24-629)
Kind of assay: PBMC pSTAT3 Assay. The assay is classed as cell-based. Particulars: PBMCs from healthy donors, IL-23 5 ng/mL, 30 minutes, read-out: PBMC pSTAT3 IC50. The procedure: Cryopreserved peripheral blood mononuclear cells (PBMCs) from healthy donors were thawed and washed twice in ImmunoCult-XF T cell expansion medium (XF-TCEM) supplemented with CTL anti-aggregate wash. The cells were counted, resuspended at 2-6×10^5 cells per mL XF-TCEM supplemented with penicillin/streptomycin and 100 ng/mL IL-1β (BioLegend, 579404), and cultured in tissue culture flasks coated with anti-CD3 (eBioscience, 16-0037-85 or BD Pharmingen, 555329) at 37° C. in 5% CO2. On day 4 of culture, PBMCs were collected, washed twice in RPMI-1640 supplemented with 0.1% BSA (RPMI-BSA), and incubated in RPMI-BSA in upright tissue culture flasks for ˜4 hours at 37° C. in 5% CO2. Following this ‘starvation,’ a total of 6×10^4 cells in 30 μL RPMI-BSA was transferred into each well of a 384-well plate pre-spotted with peptide or DMSO. The cells were incubated for 30 minutes prior to the addition of IL-23 at a final concentration of 5 ng/mL. The cells were stimulated with cytokine for 30 minutes at 37° C. in 5% CO2, transferred onto ice for 10 minutes, and lysed. Cell lysates were stored at −80° C. until phosphorylated STAT3 was measured using the phospho-STAT panel kit (Meso Scale Discovery, K15202D).

Each structure is given as a SMILES string. Starred links: 1 amine or outer side, 2 acyl side, 3 side chain; linkers in the order of their positions; H or OH if unused. Positions of bridges follow the written chain, without caps; N, C: chain ends. Non-standard residues stand in square brackets, D forms with d. Residues, ends and D or L forms follow the SMILES beside them. *: point of attachment. Trp(7-(3-AcNH-Ph)) = CC(=O)Nc1cccc(-c2cccc3c(C[C@H](N)C(=O)O)c[nH]c23)c1; Me3N+(CH2)2O(CH2)2O(CH2)2CO = C[N+](C)(C)CCOCCOCCC(=O)*; 2Nal(6-OH) = N[C@@H](Cc1ccc2cc(O)ccc2c1)C(=O)O; Trp(7-Me) = Cc1cccc2c(C[C@H](N)C(=O)O)c[nH]c12; Abu(4-yl) = O=C([C@H](CC[*:3])N[*:1])[*:2]; dLys(Me3) = C[N+](C)(C)CCCC[C@@H](N)C(=O)O; 3Pal(5-Me) = Cc1cncc(C[C@H](N)C(=O)O)c1; AEF = NCCOc1ccc(C[C@H](N)C(=O)O)cc1; 3Pal = N[C@@H](Cc1cccnc1)C(=O)O; Ethyl(2-guanidino) = N=C(N)NCC*; Aad = N[C@@H](CCCC(=O)O)C(=O)O; Lys(Me) = CNCCCC[C@H](N)C(=O)O; Pen = CC(C)(S)[C@H](N)C(=O)O; Thp = NC1(C(=O)O)CCOCC1; X18 = C[N+](C)(C)CCCCC*; Ava = NCCCCC(=O)O; Sar = CNCC(=O)O

One may read the IC50 as the concentration needed to halve the response being measured. Take `CC(=O)N(C)CCCC[C@@H]1NC(=O)[C@H](Cc2c[nH]c3c(C)cccc23)NC(=O)[C@H]([C@@H](C)O)NC(=O)[C@H](CC(N)=O)NC(=O)[C@@H](NC(=O)CCOCCOCC[N+](C)(C)C)C(C)(C)SSC(C)(C)[C@@H](C(=O)N[C@@H](Cc2ccc(OCCN)cc2)C(=O)N[C@@H](Cc2ccc3cc(O)ccc3c2)C(=O)NC2(C(=O)N[C@@H](CCC(=O)N(C)C)C(=O)N[C@@H](CC(N)=O)C(=O)N[C@@H](Cc3cccnc3)C(=O)N(C)CC(N)=O)CCOCC2)NC1=O` [compound 392, cPEG3aCO-Pen(3)-N-T-7MeW-K(NMeAc)-Pen(3)-AEF-6OH2Nal-THP-Q(N(Me)2)-N-3Pya-Sar-CONH2] ({Me3N+(CH2)2O(CH2)2O(CH2)2CO}-[Pen]NT[Trp(7-Me)][Lys(Me)](Ac)[Pen][AEF][2Nal(6-OH)][Thp]E(NMe2)N[3Pal][Sar]-NH2; disulfide 1-6): the figures for the IC50 in assay [1] and in assay [2] were less than 10000 pM and less than 10 pM, respectively.

Take `CC(=O)NCCCC[C@@H]1NC(=O)[C@H](Cc2c[nH]c3c(C)cccc23)NC(=O)[C@H]([C@@H](C)O)NC(=O)[C@H](CC(N)=O)NC(=O)[C@@H](NC(=O)[C@@H](CCCNC(=N)N)NC(C)=O)C(C)(C)SSC(C)(C)[C@@H](C(=O)N[C@@H](Cc2ccc(OCCCCC[N+](C)(C)C)cc2)C(=O)N[C@@H](Cc2ccc3cc(O)ccc3c2)C(=O)NC2(C(=O)N[C@@H](CCC(=O)O)C(=O)N[C@@H](CC(N)=O)C(=O)N[C@@H](Cc3cccnc3)C(=O)N(C)CC(N)=O)CCOCC2)NC1=O` [compound 59, MeCO-r-Pen(3)-N-T-7MeW-K(Ac)-Pen(3)-TMAPF-6OH2Nal-THP-E-N-3Pya-Sar-CONH2] (Ac-[dR][Pen]NT[Trp(7-Me)]K(Ac)[Pen]Y(X18)[2Nal(6-OH)][Thp]EN[3Pal][Sar]-NH2; disulfide 2-7): the IC50 was less than 10000 pM in assay [1] and 10 to 100 pM in assay [2].

In the case of `CC(=O)NCCCC[C@@H]1NC(=O)[C@H](Cc2c[nH]c3c(-c4cccc(NC(C)=O)c4)cccc23)NC(=O)[C@H]([C@@H](C)O)NC(=O)[C@H](CC(N)=O)NC(=O)[C@@H](NC(=O)[C@@H](CCCC[N+](C)(C)C)NC(C)=O)C(C)(C)SSC(C)(C)[C@@H](C(=O)N[C@@H](Cc2ccc(OCCNC(=N)N)cc2)C(=O)N[C@@H](Cc2ccc3cc(O)ccc3c2)C(=O)NC2(C(=O)N[C@@H](CCC(=O)O)C(=O)N[C@@H](CC(N)=O)C(=O)N[C@@H](Cc3cncc(C)c3)C(=O)N(C)CC(N)=O)CCOCC2)NC1=O` [compound 11, MeCO-k(Me)3-Pen(3)-N-T-7(3NAcPh)W-K(Ac)-Pen(3)-AEF(G)-6OH2Nal-THP-E-N-5MePyridinAla-Sar-CONH2] (Ac-[dLys(Me3)][Pen]NT[Trp(7-(3-AcNH-Ph))]K(Ac)[Pen]Y(Ethyl(2-guanidino))[2Nal(6-OH)][Thp]EN[3Pal(5-Me)][Sar]-NH2; disulfide 2-7), the IC50 in assay [1] is less than 10000 pM; in assay [2] it was less than 10 pM.

As to `C[C@@H](O)[C@@H]1NC(=O)[C@H](CC(N)=O)NC(=O)[C@@H]2CCSC[C@H](NC(=O)[C@H](CCC(N)=O)NC(=O)[C@H](Cc3c[nH]c4ccccc34)NC1=O)C(=O)N[C@@H](Cc1ccc(OCCN)cc1)C(=O)N[C@@H](Cc1ccc3cc(O)ccc3c1)C(=O)NC1(CCOCC1)C(=O)N[C@H](C(=O)N[C@@H](CC(N)=O)C(=O)N[C@@H](Cc1cccnc1)C(=O)N(C)CC(N)=O)CCC(=O)NCCCCC(=O)N2` [compound 172] ([Ava][Abu(4-yl)]NTWQC[AEF][2Nal(6-OH)][Thp]EN[3Pal][Sar]-NH2; thioether 2-7; lactam N-11), the IC50 in assay [1] is less than 10000 pM; in assay [2], less than 10 pM.

In the case of `CC(=O)NCCCC[C@@H]1NC(=O)[C@H](Cc2c[nH]c3c(-c4cccc(NC(C)=O)c4)cccc23)NC(=O)[C@H]([C@@H](C)O)NC(=O)[C@H](CC(N)=O)NC(=O)[C@@H](NC(=O)[C@@H](CCCNC(=N)N)NC(C)=O)C(C)(C)SSC(C)(C)[C@@H](C(=O)N[C@@H](Cc2ccc(OCCNC(=N)N)cc2)C(=O)N[C@@H](Cc2ccc3cc(O)ccc3c2)C(=O)NC2(C(=O)N[C@@H](CCC(=O)O)C(=O)N[C@@H](CC(N)=O)C(=O)N[C@@H](Cc3cncc(C)c3)C(=O)N(C)CC(N)=O)CCOCC2)NC1=O` [compound 15, MeCO-r-Pen(3)-N-T-7(3NAcPh)W-K(Ac)-Pen(3)-AEF(G)-6OH2Nal-THP-E-N-5MePyridinAla-Sar-CONH2] (Ac-[dR][Pen]NT[Trp(7-(3-AcNH-Ph))]K(Ac)[Pen]Y(Ethyl(2-guanidino))[2Nal(6-OH)][Thp]EN[3Pal(5-Me)][Sar]-NH2; disulfide 2-7), the results for the IC50 in assay [1] and in assay [2] were less than 10000 pM and less than 10 pM, respectively.

With `CC(=O)NCCCC[C@@H]1NC(=O)[C@H](Cc2c[nH]c3c(C)cccc23)NC(=O)[C@H]([C@@H](C)O)NC(=O)[C@H](CC(N)=O)NC(=O)[C@@H]2CCSC[C@H](NC1=O)C(=O)N[C@@H](Cc1ccc(OCCN)cc1)C(=O)N[C@@H](Cc1ccc3cc(O)ccc3c1)C(=O)NC1(CCOCC1)C(=O)N[C@H](C(=O)N[C@@H](CC(N)=O)C(=O)N[C@@H](Cc1cccnc1)C(=O)N(C)CC(N)=O)CCC(=O)NCCCCC(=O)N2` [compound 171] ([Ava][Abu(4-yl)]NT[Trp(7-Me)]K(Ac)C[AEF][2Nal(6-OH)][Thp]EN[3Pal][Sar]-NH2; thioether 2-7; lactam N-11), the figures for the half-maximal inhibitory concentration (IC50) in assay [1] and in assay [2] were less than 10000 pM and less than 10 pM, respectively.

Regarding `CC(=O)NCCCC[C@@H]1NC(=O)[C@H](Cc2c[nH]c3c(C)cccc23)NC(=O)[C@H]([C@@H](C)O)NC(=O)[C@@H]2CCC(=O)NCCOc3ccc(cc3)C[C@@H](C(=O)N[C@@H](Cc3ccc4cc(O)ccc4c3)C(=O)NC3(C(=O)N[C@@H](CCCCNC(C)=O)C(=O)N[C@@H](CC(N)=O)C(=O)N[C@@H](Cc4cccnc4)C(=O)N(C)CC(N)=O)CCOCC3)NC(=O)[C@@H](NC1=O)C(C)(C)SSC(C)(C)[C@H](NC(C)=O)C(=O)N2` [SEQ ID NO: 414, MeCO-Pen(3)-E(2)-T-7MeW-K(Ac)-Pen(3)-AEF(2)-6OH2Nal-THP-K(Ac)-N-3Pya-Sar-CONH2] (Ac-[Pen]ET[Trp(7-Me)]K(Ac)[Pen][AEF][2Nal(6-OH)][Thp]K(Ac)N[3Pal][Sar]-NH2; disulfide 1-6; lactam 2-7), the IC50 was less than 10000 pM in assay [1] and less than 10 pM in assay [2].

For `CC(=O)N(C)CCCC[C@@H]1NC(=O)[C@H](Cc2c[nH]c3c(C)cccc23)NC(=O)[C@H]([C@@H](C)O)NC(=O)[C@H](CC(=O)N(C)C)NC(=O)[C@H]2NC(=O)[C@H](NC(=O)CCOCCOCC[N+](C)(C)C)CCCCNC(=O)CCC[C@@H](C(=O)N[C@@H](CC(N)=O)C(=O)N[C@@H](Cc3cccnc3)C(=O)N(C)CC(=O)N(C)C)NC(=O)C3(CCOCC3)NC(=O)[C@H](Cc3ccc4cc(O)ccc4c3)NC(=O)[C@H](Cc3ccc(OCCN)cc3)NC(=O)[C@@H](NC1=O)C(C)(C)SSC2(C)C` [compound 373, cPEG3aCO-k(2)-Pen(3)-N(N(Me)2)-T-7MeW-K(NMeAc)-Pen(3)-AEF-6OH2Nal-THP-hE(2)-N-3Pya-Sar-CON(Me)2] ({Me3N+(CH2)2O(CH2)2O(CH2)2CO}-[dK][Pen]D(NMe2)T[Trp(7-Me)][Lys(Me)](Ac)[Pen][AEF][2Nal(6-OH)][Thp][Aad]N[3Pal][Sar]-NMe2; lactam 1-11; disulfide 2-7), the IC50 is less than 10000 pM in assay [1] and less than 10 pM in assay [2].
